Experimental findings from ChEMBL document CHEMBL1132520, “Antimalarial activity of 3-hydroxyalkyl-2-methylene-propionic acid derivatives” (1999) are described below.

Active and inactive are the calls of the source. The rule behind the calls is not given here.

The test system of assay [1] is Plasmodium falciparum. The assay is described as follows: In vitro inhibition of Plasmodium falciparum at 5 uM/well dose at 72 hrs in total parasite growth assay. Format: functional.
The subject of assay [2] is Plasmodium falciparum. Kind of assay: In vitro inhibition of Plasmodium falciparum at 0.25 uM/well dose at 72 hrs in total parasite growth assay. Format: functional.
Assay [3] deals with Plasmodium falciparum. The assay is described as follows: In vitro inhibition of Plasmodium falciparum at 2.5 uM/well dose at 72 hrs in total parasite growth assay. It is filed as functional.
For assay [4], the system named is Plasmodium falciparum. Kind of assay: In vitro inhibition of Plasmodium falciparum at 25 uM/well dose at 72 hrs in total parasite growth assay. It is filed as functional.
Assay [5] has as its system Plasmodium falciparum. Kind of assay: In vitro inhibition of Plasmodium falciparum at 1.0 uM/well dose at 72 hrs in total parasite growth assay. It is filed as functional.
The subject of assay [6] is Plasmodium falciparum. Kind of assay: In vitro inhibition of Plasmodium falciparum at 100 uM/well dose at 72 hrs in total parasite growth assay. Format: functional.
Assay [7] concerns Plasmodium falciparum. Kind of assay: In vitro inhibition of Plasmodium falciparum at 10 uM/well dose at 72 hrs in total parasite growth assay. Format: functional.
The test system of assay [8] is Plasmodium falciparum. The assay is described as follows: In vitro antimalarial activity for Plasmodium falciparum at 100 uM/well dose at 24 hrs in Schizont maturation assay. Format: functional.
The subject of assay [9] is Plasmodium falciparum. The assay is described as follows: In vitro antimalarial activity for Plasmodium falciparum at 10 uM/well dose at 24 hrs in Schizont maturation assay. It is filed as functional.
Assay [10] deals with Plasmodium falciparum. Kind of assay: In vitro antimalarial activity for Plasmodium falciparum at 1 uM/well dose at 24 hrs in Schizont maturation assay. It is filed as functional.
For assay [11], the system named is Plasmodium falciparum. Kind of assay: In vitro antimalarial activity for Plasmodium falciparum at 500 uM/well dose at 24 hrs in Schizont maturation assay. It is filed as functional.
Assay [12] has as its system Plasmodium falciparum. The assay is described as follows: In vitro antimalarial activity for Plasmodium falciparum at 50 uM/well dose at 24 hrs in Schizont maturation assay. Format: functional.
For assay [13], the system named is Plasmodium falciparum. The assay is described as follows: In vitro antimalarial activity for Plasmodium falciparum at 5 uM/well dose at 24 hrs in Schizont maturation assay. Format: functional.
Assay [14] concerns Mus musculus. The assay is described as follows: In vivo antimalarial activity against Plasmodium berghei in mice (Mus musculus); Inactive. Format: functional, organism-based.
Assay [15] concerns Mus musculus. The assay is described as follows: Antimalarial activity against Plasmodium berghei evaluated in terms of mean survival time for mice (Mus musculus) at a dose of 160 mg/kg. Format: functional.
For assay [16], the system named is Mus musculus. The assay is described as follows: Anti-malarial activity against Plasmodium berghei evaluated in terms of mean survival time for mice (Mus musculus) at a dose of 20 mg/kg. It is filed as functional.
The subject of assay [17] is Mus musculus. The assay is described as follows: Antimalarial activity against Plasmodium berghei evaluated in terms of mean survival time for mice (Mus musculus) at a dose of 40 mg/kg. Format: functional.
Assay [18] concerns Mus musculus. Kind of assay: Antimalarial activity against Plasmodium berghei evaluated in terms of mean survival time for mice (Mus musculus) at a dose of 80 mg/kg. Format: functional.
Assay [19] deals with Plasmodium falciparum. Kind of assay: In vitro antimalarial activity for Plasmodium falciparum at 2.5 uM/well dose at 24 hrs in Schizont maturation assay. It is filed as functional.
The subject of assay [20] is Plasmodium falciparum. The assay is described as follows: In vitro antimalarial activity for Plasmodium falciparum at 20 uM/well dose at 24 hrs in Schizont maturation assay. Format: functional.
In assay [21] the test system is Plasmodium falciparum. The assay is described as follows: In vitro inhibition of Plasmodium falciparum at 50 uM/well dose at 72 hrs in total parasite growth assay. Format: functional.
Assay [22] relates to Plasmodium falciparum. Kind of assay: In vitro inhibition of Plasmodium falciparum at 0.5 uM/well dose at 72 hrs in total parasite growth assay. Format: functional.
The subject of assay [23] is Plasmodium falciparum. The assay is described as follows: In vitro inhibition of Plasmodium falciparum at 20 uM/well dose at 72 hrs in total parasite growth assay; Not determined. It is filed as functional.
For assay [24], the system named is Plasmodium falciparum. Kind of assay: In vitro antimalarial activity for Plasmodium falciparum at 0.50 uM/well dose at 24 hrs in Schizont maturation assay. It is filed as functional.
For assay [25], the system named is Plasmodium falciparum. Kind of assay: In vitro antimalarial activity for Plasmodium falciparum at 0.10 uM/well dose at 24 hrs in Schizont maturation assay. Format: functional.
Assay [26] deals with Plasmodium falciparum. Kind of assay: In vitro antimalarial activity for Plasmodium falciparum at 0.25 uM/well dose at 24 hrs in Schizont maturation assay. Format: functional.
Assay [27] relates to Mus musculus. The assay is described as follows: In vivo anti-malarial activity against Plasmodium berghei in mice (Mus musculus) at a dose of 160 mg/kg; Active. It is filed as functional, organism-based. Also noted: dose 160 mg/kg.
Assay [28] relates to Plasmodium falciparum. Kind of assay: In vitro inhibition of Plasmodium falciparum at 20 uM/well dose at 72 hrs in total parasite growth assay. Format: functional.

As to `C=C(C(=O)OC)C(O)c1ccco1` (stereo not drawn), the PGI in the assay with Plasmodium falciparum [1] is recorded as 85.7%; in the assay on Plasmodium falciparum [2] it was 0%; in the assay on Plasmodium falciparum [3] it was 42.8%; with Plasmodium falciparum [4], 100%; in the assay on Plasmodium falciparum [5], 20%; in the assay on Plasmodium falciparum [6], 100%. Besides, the PGI in the assay with Plasmodium falciparum [7] came out at 98%.

The molecule `C=C(C(=O)OC)C(O)c1ccc([N+](=O)[O-])cc1` (stereo not drawn) had an inhibition at 100 µM with Plasmodium falciparum [8] of 81.6%. This molecule also showed an inhibition at 10 µM in the assay on Plasmodium falciparum [9] of 44.7%. The inhibition at 1 µM in the assay on Plasmodium falciparum [10] came out at 2.6%. Further, the inhibition at 500 µM with Plasmodium falciparum [11] came out at 100%. The same molecule had an inhibition at 50 µM with Plasmodium falciparum [12] of 52.6%. In the assay on Plasmodium falciparum [13], the inhibition at 5 µM worked out at 18.4%.

With `C=C(C#N)C(O)/C=C(\C)CCC=C(C)C` (stereo not drawn), the outcome with Mus musculus [14] was inactive. The Mean survival time with Mus musculus [15] was determined as 11.6 days; with Mus musculus [16], 7.3 days; with Mus musculus [17] it was 8.6 days; in the assay on Mus musculus [18], 9.8 days.

For `C=C(C(=O)OC)C(O)c1cccnc1` (stereo not drawn), the inhibition at 100 µM with Plasmodium falciparum [8] amounted to 100%. Also, in the assay on Plasmodium falciparum [9], testing at 10 µM gave an inhibition of 100%. The molecule also had an inhibition at 1 µM in the assay on Plasmodium falciparum [10] of 43%. In addition, the inhibition at 2.5 µM in the assay on Plasmodium falciparum [19] is 64%. At 20 µM the inhibition in the assay on Plasmodium falciparum [20] was 100%. In the assay on Plasmodium falciparum [12], this molecule yielded an inhibition at 50 µM of 100%. In the assay with Plasmodium falciparum [13], the inhibition at 5 µM amounted to 100%. Besides, the PGI in the assay with Plasmodium falciparum [21] was 100%; with Plasmodium falciparum [1], 92.5%; in the assay on Plasmodium falciparum [2] it was 5%; with Plasmodium falciparum [22], 25%; in the assay on Plasmodium falciparum [3] it was 75%; in the assay on Plasmodium falciparum [23], 100%. The PGI with Plasmodium falciparum [5] stood at 50%; in the assay with Plasmodium falciparum [6], 100%; with Plasmodium falciparum [7], 100%. The molecule further had an inhibition at 0.5 µM in the assay with Plasmodium falciparum [24] of 29%. For the same molecule, the inhibition at 0.1 µM with Plasmodium falciparum [25] turned out to be 0%. The inhibition at 0.25 µM with Plasmodium falciparum [26] worked out at 5%.

Consider `C=C(C#N)C(O)c1ccco1` (stereo not drawn), for which the PGI stood at 68.6% in the assay with Plasmodium falciparum [1]; 14% in the assay with Plasmodium falciparum [22]; 40% in the assay with Plasmodium falciparum [3]; 84% with Plasmodium falciparum [4]; 31.4% with Plasmodium falciparum [5]; 100% in the assay with Plasmodium falciparum [6]. Moreover, the PGI in the assay on Plasmodium falciparum [7] is reported as 79%.

Take `C=C(C#N)C(OCCC#N)c1ccc2c(c1)OCO2` (stereo not drawn): the result in the assay with Mus musculus [27] was Active. For the same molecule, the Mean survival time was 14.2 days in the assay with Mus musculus [15], 7.8 days in the assay on Mus musculus [16], 9.2 days with Mus musculus [17] and 11.4 days in the assay on Mus musculus [18]. The molecule also came in with an inhibition at 100 µM in the assay on Plasmodium falciparum [8] of 100%. The same molecule displayed an inhibition at 10 µM in the assay with Plasmodium falciparum [9] of 93%. Moreover, at 1 µM the inhibition in the assay on Plasmodium falciparum [10] was 43%. This molecule came in with an inhibition at 2.5 µM with Plasmodium falciparum [19] of 57%. In the assay with Plasmodium falciparum [20], the inhibition at 20 µM worked out at 100%. Also, 50 µM produced 100% inhibition in the assay with Plasmodium falciparum [12]. This molecule displayed an inhibition at 5 µM in the assay with Plasmodium falciparum [13] of 64%. Further, the PGI with Plasmodium falciparum [21] stood at 100%; with Plasmodium falciparum [1], 52.5%; in the assay on Plasmodium falciparum [2], 0%; in the assay with Plasmodium falciparum [22], 10%; in the assay with Plasmodium falciparum [3] it was 40%; in the assay with Plasmodium falciparum [28], 95%. The PGI in the assay with Plasmodium falciparum [5] stood at 25%; in the assay with Plasmodium falciparum [6], 100%; in the assay on Plasmodium falciparum [7] it was 90%. For the same molecule, the inhibition at 0.5 µM in the assay on Plasmodium falciparum [24] is 36%. For the same molecule, testing at 0.1 µM with Plasmodium falciparum [25] gave an inhibition of 0%. In the assay on Plasmodium falciparum [26], the inhibition at 0.25 µM came out at 6%.

Consider `C=C(CCC(C)=O)C(C)=O`, for which, in the assay with Plasmodium falciparum [8], at 100 µM the inhibition was 100%. This molecule registered an inhibition at 10 µM with Plasmodium falciparum [9] of 100%. For the same molecule, 1 µM produced 52.6% inhibition with Plasmodium falciparum [10]. The molecule also yielded an inhibition at 500 µM with Plasmodium falciparum [11] of 100%. Further, in the assay with Plasmodium falciparum [12], the inhibition at 50 µM worked out at 100%. Also, in the assay with Plasmodium falciparum [13], at 5 µM the inhibition was 100%. In addition, the PGI in the assay on Plasmodium falciparum [1] was determined as 88.6%; with Plasmodium falciparum [3] it was 65.7%; with Plasmodium falciparum [4] it was 100%; with Plasmodium falciparum [5] it was 8.6%; with Plasmodium falciparum [6], 100%; in the assay on Plasmodium falciparum [7] it was 100%.

For `C=C(C#N)C(O)c1ccc(OC)c(OC)c1` (stereo not drawn), at 100 µM the inhibition in the assay with Plasmodium falciparum [8] was 100%. Besides, in the assay on Plasmodium falciparum [9], at 10 µM the inhibition was 42%. Besides, the inhibition at 1 µM in the assay on Plasmodium falciparum [10] was found to be 5.26%. Further, the inhibition at 500 µM with Plasmodium falciparum [11] worked out at 100%. In the assay on Plasmodium falciparum [12], this molecule gave an inhibition at 50 µM of 71%. This molecule registered an inhibition at 5 µM with Plasmodium falciparum [13] of 21%. In the assay on Plasmodium falciparum [24], the inhibition at 0.5 µM is 0%. In the assay with Plasmodium falciparum [25], 0.1 µM produced 0% inhibition. The molecule further returned an inhibition at 0.25 µM with Plasmodium falciparum [26] of 0%.

In the case of `C=C(C(=O)OC)C(O)/C=C(\C)CCC=C(C)C` (stereo not drawn), the result with Mus musculus [14] was inactive. Further, the Mean survival time in the assay with Mus musculus [15] worked out at 11.4 days; in the assay with Mus musculus [16] it was 7.2 days; in the assay on Mus musculus [17] it was 8.4 days; in the assay with Mus musculus [18] it was 9.6 days.

For the molecule `C=C(C(=O)OC)C(O)c1ccccc1` (stereo not drawn), the result in the assay with Mus musculus [14] was inactive. Further, the Mean survival time stood at 12 days in the assay with Mus musculus [15], 6 days in the assay with Mus musculus [16], 7 days in the assay on Mus musculus [17] and 10.2 days in the assay with Mus musculus [18]. In the assay on Plasmodium falciparum [8], 100 µM produced 100% inhibition. The same molecule displayed an inhibition at 10 µM with Plasmodium falciparum [9] of 100%. The molecule also registered an inhibition at 1 µM in the assay with Plasmodium falciparum [10] of 43%. The same molecule registered an inhibition at 2.5 µM in the assay with Plasmodium falciparum [19] of 64%. At 20 µM the inhibition with Plasmodium falciparum [20] was 100%. Further, at 50 µM the inhibition in the assay on Plasmodium falciparum [12] was 100%. Besides, at 5 µM the inhibition with Plasmodium falciparum [13] was 93%. In addition, the PGI is on record as 100% in the assay on Plasmodium falciparum [21]; 100% with Plasmodium falciparum [1]; 0% with Plasmodium falciparum [2]; 7.5% with Plasmodium falciparum [22]; 62.5% in the assay on Plasmodium falciparum [3]; 100% in the assay with Plasmodium falciparum [23]. Moreover, the PGI was 40% in the assay on Plasmodium falciparum [5], 100% in the assay with Plasmodium falciparum [6] and 100% with Plasmodium falciparum [7]. Besides, the inhibition at 0.5 µM with Plasmodium falciparum [24] came to 7%. The molecule further had an inhibition at 0.1 µM in the assay with Plasmodium falciparum [25] of 0%. The molecule also yielded an inhibition at 0.25 µM with Plasmodium falciparum [26] of 0%.
